Measured values taken from patent US10308659B2, “Pyridine derivatives” (Hoffmann-La Roche Inc., priority 2013, dated 2019).
Like-named read-outs stand apart in the source and are kept apart here.

Assays:
human CB1 receptors = human CB1 receptors (Homo sapiens (Human), UniProt P21554); test: cAMP assay, CHO cells expressing human CB1 receptors; assay type: cell-based
Description: (§1) CHO cells expressing human CB1 or CB2 receptors are seeded 17-24 hours prior to the experiment 50.000 cells per well in a black 96 well plate with flat clear bottom (Corning Costar #3904) in DMEM (Invitrogen No. 31331), 1×HT supplement, with 10% fetal calf serum and incubated at 5% CO2 and 37° C. in a humidified incubator. The growth medium was exchanged with Krebs Ringer Bicarbonate buffer with 1 mM IBMX and incubated at 30° C. for 30 min. Compounds were added to a final assay volume of 100 μl and incubated for 30 min at 30° C. […] The time-resolved energy transfer is measured by a TRF reader (Evotec Technologies GmbH), equipped with a ND:YAG laser as excitation source. The plate is measured twice with the excitation at 355 nm and at the emission with a delay of 100 ns and a gate of 100 ns, total exposure time 10 s at 730 (bandwidth30 nm) or 645 nm (bandwidth 75 nm), respectively. The FRET signal is calculated as follows: FRET=T730-Alexa730-P(T645-B645) with P=Ru730-B730/Ru645-B645, where T730 is the test well measured at 730 nM, T645 is the test well measured at 645 nm, B730 and B645 are the buffer controls at 730 nm and 645 nm, respectively. cAMP content is determined from the function of a standard curve spanning from 10 μM to 0.13 nM cAMP.
(§2) EC50 values were determined using Activity Base analysis (ID Business Solution, Limited).

human CB2 receptors = human CB2 receptors (Homo sapiens (Human), UniProt P34972); test: cAMP assay, CHO cells expressing human CB2 receptors; assay type: cell-based
Sequence of human CB2 receptors (P34972 whole entry): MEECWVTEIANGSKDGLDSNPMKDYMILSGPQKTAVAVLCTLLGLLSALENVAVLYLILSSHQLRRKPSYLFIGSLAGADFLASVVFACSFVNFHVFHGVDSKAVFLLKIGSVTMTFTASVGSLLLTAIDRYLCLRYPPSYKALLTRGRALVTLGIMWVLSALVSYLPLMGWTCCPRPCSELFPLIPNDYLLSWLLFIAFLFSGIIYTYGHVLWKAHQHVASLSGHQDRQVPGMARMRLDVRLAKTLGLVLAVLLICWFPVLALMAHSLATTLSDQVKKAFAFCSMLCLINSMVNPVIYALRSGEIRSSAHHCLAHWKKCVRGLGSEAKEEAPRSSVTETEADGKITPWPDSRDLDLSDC
Description: as §1, §2

[1] = functional cAMP assay, CHO cells expressing human CB1, read-out: EC50 CB1 human
[2] = functional cAMP assay, CHO cells expressing human CB2, read-out: EC50 CB2 human

Sequence of human CB1 receptors (P21554 whole entry): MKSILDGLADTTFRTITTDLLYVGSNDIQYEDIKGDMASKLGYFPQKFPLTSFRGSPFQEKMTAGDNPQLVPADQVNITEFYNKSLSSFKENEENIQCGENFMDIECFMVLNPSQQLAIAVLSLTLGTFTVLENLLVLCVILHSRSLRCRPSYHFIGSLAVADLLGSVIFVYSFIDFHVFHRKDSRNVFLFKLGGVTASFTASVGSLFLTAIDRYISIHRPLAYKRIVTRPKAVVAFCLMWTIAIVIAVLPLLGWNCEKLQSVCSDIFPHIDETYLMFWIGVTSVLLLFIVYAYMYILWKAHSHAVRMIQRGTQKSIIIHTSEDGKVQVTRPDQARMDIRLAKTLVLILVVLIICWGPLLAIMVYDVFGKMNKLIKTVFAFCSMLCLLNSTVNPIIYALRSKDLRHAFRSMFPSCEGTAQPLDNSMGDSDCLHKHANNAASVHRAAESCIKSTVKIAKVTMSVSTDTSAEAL

SMILES	EC50 (human CB1 receptors; [1]) [µM]	EC50 (human CB2 receptors; [2]) [µM]	EC50 (human CB1 receptors) [µM]	EC50 (human CB2 receptors) [µM]
Cc1noc(-c2cc(OCC3CC3)c(C3CC3)cn2)n1 [Example 1, 5-[5-cyclopropyl-4-(cyclopropylmethoxy)pyridin-2-yl]-3-methyl-1,2,4-oxadiazole]	> 10	0.0257		
c1ccc(-c2noc(-c3cc(OCC4CC4)c(C4CC4)cn3)n2)cc1 [Example 2, 5-[5-cyclopropyl-4-(cyclopropylmethoxy)pyridin-2-yl]-3-phenyl-1,2,4-oxadiazole]	> 10	0.0231		
c1c(-c2nc(C3CC3)no2)ncc(C2CC2)c1OCC1CC1 [Example 3, 3-cyclopropyl-5-[5-cyclopropyl-4-(cyclopropylmethoxy)pyridin-2-yl]-1,2,4-oxadiazole]	> 10	0.0012		
c1c(-c2nc(C3CCCC3)no2)ncc(C2CC2)c1OCC1CC1 [Example 4, 3-cyclopentyl-5-[5-cyclopropyl-4-(cyclopropylmethoxy)pyridin-2-yl]-1,2,4-oxadiazole]	> 10	0.0021		
c1ccc(Cc2noc(-c3cc(OCC4CC4)c(C4CC4)cn3)n2)cc1 [Example 5, 3-benzyl-5-[5-cyclopropyl-4-(cyclopropylmethoxy)pyridin-2-yl]-1,2,4-oxadiazole]	> 10	0.0691		
CC(C)(C)c1noc(-c2cc(OCC3CC3)c(C3CC3)cn2)n1 [Example 6, 3-tert-butyl-5-[5-cyclopropyl-4-(cyclopropylmethoxy)pyridin-2-yl]-1,2,4-oxadiazole]	0.0092	0.001		
FC(F)(F)COc1cc(-c2nc(C3CC3)no2)ncc1C1CC1 [Example 7, 3-cyclopropyl-5-[5-cyclopropyl-4-(2,2,2-trifluoroethoxy)pyridin-2-yl]-1,2,4-oxadiazole]	> 10			
FC(F)(F)COc1cc(-c2nc(C(F)(F)F)no2)ncc1C1CC1 [Example 8, 5-[5-cyclopropyl-4-(2,2,2-trifluoroethoxy)pyridin-2-yl]-3-(trifluoromethyl)-1,2,4-oxadiazole]	> 10	0.0213		
c1c(-c2noc(C3CC3)n2)ncc(C2CC2)c1OCC1CC1 [Example 9, 5-cyclopropyl-3-[5-cyclopropyl-4-(cyclopropylmethoxy)pyridin-2-yl]-1,2,4-oxadiazole]			> 10	0.0158
CCC1(CC)COC(c2cc(OCC3CC3)c(C3CC3)cn2)=N1 [Example 11, 2-[5-cyclopropyl-4-(cyclopropylmethoxy)pyridin-2-yl]-4,4-diethyl-5H-1,3-oxazole]	> 10	0.0006		
COCc1nc(-c2cc(OCC3CC3)c(C3CC3)cn2)no1 [Example 12, 3-[5-cyclopropyl-4-(cyclopropylmethoxy)pyridin-2-yl]-5-(methoxymethyl)-1,2,4-oxadiazole]	> 10	0.0466		
CCc1nc(-c2cc(OCC3CC3)c(C3CC3)cn2)no1 [Example 13, 3-[5-cyclopropyl-4-(cyclopropylmethoxy)pyridin-2-yl]-5-ethyl-1,2,4-oxadiazole]	> 10	0.0319		
CC(C)c1nc(-c2cc(OCC3CC3)c(C3CC3)cn2)no1 [Example 14, 3-[5-cyclopropyl-4-(cyclopropylmethoxy)pyridin-2-yl]-5-propan-2-yl-1,2,4-oxadiazole]	> 10	0.0037		
FC(F)(F)COc1cc(-c2nc(C3CC3)no2)ncc1N1CC(F)(F)C1 [Example 15, 3-cyclopropyl-5-[5-(3,3-difluoroazetidin-1-yl)-4-(2,2,2-trifluoroethoxy)pyridin-2-yl]-1,2,4-oxadiazole]	> 10	0.0198		
Cc1noc(-c2cc(OCC(F)(F)F)c(N3CC(F)(F)C3)cn2)n1 [Example 16, 5-[5-(3,3-difluoroazetidin-1-yl)-4-(2,2,2-trifluoroethoxy)pyridin-2-yl]-3-methyl-1,2,4-oxadiazole]	> 10	0.343		
CC(C)(C)c1noc(-c2cc(OCC(F)(F)F)c(N3CC(F)(F)C3)cn2)n1 [Example 17, 3-tert-butyl-5-[5-(3,3-difluoroazetidin-1-yl)-4-(2,2,2-trifluoroethoxy)pyridin-2-yl]-1,2,4-oxadiazole]	> 10			
OCc1nc(-c2cc(OCC3CC3)c(C3CC3)cn2)no1 [Example 18, [3-[5-cyclopropyl-4-(cyclopropylmethoxy)pyridin-2-yl]-1,2,4-oxadiazol-5-yl]methanol]	> 10	0.11		

SMILES	EC50 (human CB1 receptors; [1]) [µM]	EC50 (human CB2 receptors; [2]) [µM]	EC50 (human CB1 receptors) [µM]	EC50 (human CB2 receptors) [µM]
FC(F)(F)c1nc(-c2cc(OCC3CC3)c(C3CC3)cn2)no1 [Example 19, 3-[5-cyclopropyl-4-(cyclopropylmethoxy)pyridin-2-yl]-5-(trifluoromethyl)-1,2,4-oxadiazole]	> 10	0.0137		
CC(C)(C)[C@H]1COC(c2cc(OCC3CC3)c(C3CC3)cn2)=N1 [Example 20, (4S)-4-tert-butyl-2-[5-cyclopropyl-4-(cyclopropylmethoxy)pyridin-2-yl]-4,5-dihydro-1,3-oxazole]	> 10	0.0037		
CCC1COC(c2cc(OCC3CC3)c(C3CC3)cn2)=N1 (stereo not shown) [Example 21, 2-[5-cyclopropyl-4-(cyclopropylmethoxy)pyridin-2-yl]-4-ethyl-4,5-dihydro-1,3-oxazole]	> 10	0.07		
c1c(C2=NC3(CCCCC3)CO2)ncc(C2CC2)c1OCC1CC1 [Example 22, 2-[5-cyclopropyl-4-(cyclopropylmethoxy)pyridin-2-yl]-3-oxa-1-azaspiro[4.5]dec-1-ene]		0.0042		
OC1(c2nc(-c3cc(OCC4CC4)c(C4CC4)cn3)no2)CC1 [Example 23, 1-[3-[5-cyclopropyl-4-(cyclopropylmethoxy)pyridin-2-yl]-1,2,4-oxadiazol-5-yl]cyclopropan-1-ol]	> 10	0.0352		
CC1(c2nc(-c3cc(OCC4CC4)c(C4CC4)cn3)no2)CC1 [Example 24, 3-[5-cyclopropyl-4-(cyclopropylmethoxy)pyridin-2-yl]-5-(1-methylcyclopropyl)-1,2,4-oxadiazole]	0.581	0.0043		
NC(=O)C1(c2nc(-c3cc(OCC4CC4)c(C4CC4)cn3)no2)CC1 [Example 25, 1-[3-[5-cyclopropyl-4-(cyclopropylmethoxy)pyridin-2-yl]-1,2,4-oxadiazol-5-yl]cyclopropane-1-carboxamide]	> 10	0.135		
CC(C)(O)c1nc(-c2cc(OCC3CC3)c(C3CC3)cn2)no1 [Example 26, 2-[3-[5-cyclopropyl-4-(cyclopropylmethoxy)pyridin-2-yl]-1,2,4-oxadiazol-5-yl]propan-2-ol]	> 10			
CCC1(CC)COC(c2cc(OCC(F)(F)F)c(C3CC3)cn2)=N1 [Example 27, 2-[5-cyclopropyl-4-(2,2,2-trifluoroethoxy)pyridin-2-yl]-4,4-diethyl-5H-1,3-oxazole]	> 10	0.0035		
CC1(c2nc(-c3cc(OCC4CC4)c(C4CC4)cn3)no2)COC1 [Example 28, 3-[5-cyclopropyl-4-(cyclopropylmethoxy)pyridin-2-yl]-5-(3-methyloxetan-3-yl)-1,2,4-oxadiazole]	> 10	0.016		
c1c(-c2noc(C3CNC3)n2)ncc(C2CC2)c1OCC1CC1 [Example 29, 5-(azetidin-3-yl)-3-[5-cyclopropyl-4-(cyclopropylmethoxy)pyridin-2-yl]-1,2,4-oxadiazole]	> 10	0.797		
CC1(c2nc(-c3cc(OCC(F)(F)F)c(C4CC4)cn3)no2)CC1 [Example 34, 3-[5-cyclopropyl-4-(2,2,2-trifluoroethoxy)pyridin-2-yl]-5-(1-methylcyclopropyl)-1,2,4-oxadiazole]	> 10			
CC(C)(C)c1nc(-c2cc(OCC(F)(F)F)c(N3CC(F)(F)C3)cn2)no1 [Example 44, 5-tert-butyl-3-[5-(3,3-difluoroazetidin-1-yl)-4-(2,2,2-trifluoroethoxy)pyridin-2-yl]-1,2,4-oxadiazole]	> 10			
CC(C)(C)c1nc(-c2cc(N3CCC4(COC4)C3)c(C3CC3)cn2)no1 [Example 76, 7-[2-(5-tert-butyl-1,2,4-oxadiazol-3-yl)-5-cyclopropylpyridin-4-yl]-2-oxa-7-azaspiro[3.4]octane]	> 10			
CC(C)(C)c1nc(-c2cc(OCC3COCCN3)c(C3CC3)cn2)no1 (stereo not shown) [Example 102, 3-[[2-(5-tert-butyl-1,2,4-oxadiazol-3-yl)-5-cyclopropylpyridin-4-yl]oxymethyl]morpholine]	> 10			
CC(C)(C)c1nc(-c2cc(OCc3ccc(F)cc3)c(C3CC3)c(Cl)n2)no1 [Example 112, 5-tert-butyl-3-(6-chloro-5-cyclopropyl-4-(4-fluorobenzyloxy)pyridin-2-yl)-1,2,4-oxadiazole]	0.0732			
CC(C)(C)c1nnc(-c2cc(OCC(F)(F)F)c(C3CC3)cn2)o1 [Example 113, 2-tert-butyl-5-[5-cyclopropyl-4-(2,2,2-trifluoroethoxy)pyridin-2-yl]-1,3,4-oxadiazole]	> 10			
